Measurements taken from ChEMBL document CHEMBL3045516, “Field study of the relative susceptibility of eleven potato (Solanum tuberosum L.) varieties and the efficacy of two fungicides against Rhizoctonia solani attack” (2010).

How the values were obtained:
Format in all cases: functional
[1] = system: Rhizoctonia solani; experiment: Fungicidal activity against Rhizoctonia solani assessed as level-1 black scurf infected potato Nicola progeny tubers using 25% active ingredient containing compound treated potato seeds under field trial conditions (reference value: 0.0%)
[2] = system: Rhizoctonia solani; experiment: Fungicidal activity against Rhizoctonia solani assessed as level-2 black scurf infected potato Nicola progeny tubers using 25% active ingredient containing compound treated potato seeds under field trial conditions (reference value: 17.9%)
[3] = system: Rhizoctonia solani; experiment: Fungicidal activity against Rhizoctonia solani assessed as level-3 black scurf infected potato Nicola progeny tubers using 25% active ingredient containing compound treated potato seeds under field trial conditions (reference value: 22.4%)
[4] = system: Rhizoctonia solani; experiment: Fungicidal activity against Rhizoctonia solani assessed as level-4 black scurf infected potato Nicola progeny tubers using 25% active ingredient containing compound treated potato seeds under field trial conditions (reference value: 59.7%)
[5] = system: Rhizoctonia solani; experiment: Fungicidal activity against Rhizoctonia solani assessed as level-4 black scurf infected potato Nicola progeny tubers using in-furrow application of 25% active ingredient containing compound under field trial conditions (reference value: 59.7%)
[6] = system: Rhizoctonia solani; experiment: Fungicidal activity against Rhizoctonia solani assessed as level-4 black scurf infected potato Nicola progeny tubers using 25% active ingredient containing compound treated potato seeds and in-furrow compound application under field trial conditions (reference value: 59.7%)
[7] = system: Rhizoctonia solani; experiment: Fungicidal activity against Rhizoctonia solani assessed as level-2 black scurf infected potato Nicola progeny tubers using in-furrow application of 25% active ingredient containing compound under field trial conditions (reference value: 17.9%)
[8] = system: Rhizoctonia solani; experiment: Fungicidal activity against Rhizoctonia solani assessed as level-1 black scurf infected potato Nicola progeny tubers using in-furrow application of 25% active ingredient containing compound under field trial conditions (reference value: 0.0%)
[9] = system: Rhizoctonia solani; experiment: Fungicidal activity against Rhizoctonia solani assessed as level-1 black scurf infected potato Nicola progeny tubers using 25% active ingredient containing compound treated potato seeds and in-furrow compound application under field trial conditions (reference value: 0.0%)
[10] = system: Rhizoctonia solani; experiment: Fungicidal activity against Rhizoctonia solani assessed as level-2 black scurf infected potato Nicola progeny tubers using 25% active ingredient containing compound treated potato seeds and in-furrow compound application under field trial conditions (reference value: 17.9%)
[11] = system: Rhizoctonia solani; experiment: Fungicidal activity against Rhizoctonia solani assessed as level-3 black scurf infected potato Nicola progeny tubers using 25% active ingredient containing compound treated potato seeds and in-furrow compound application under field trial conditions (reference value: 22.4%)
[12] = system: Rhizoctonia solani; experiment: Fungicidal activity against Rhizoctonia solani assessed as level-3 black scurf infected potato Nicola progeny tubers using in-furrow application of 25% active ingredient containing compound under field trial conditions (reference value: 22.4%)

SMILES | Activity [1] | Activity [2] | Activity [3] | Activity [4] | Activity [5] | Activity [6] | Activity [7] | Activity [8] | Activity [9] | Activity [10] | Activity [11] | Activity [12]
O=C(Nc1ccccc1)N(Cc1ccc(Cl)cc1)C1CCCC1 [PENCYCURON] | 8.1% | 70.8% | 19.7% | 1.4% | – | – | – | – | – | – | – | –
CO/C=C(\C(=O)OC)c1ccccc1Oc1cc(Oc2ccccc2C#N)ncn1 [Azoxystrobin] | 0.01% | 90% | 0.01% | 10% | 0.01% | 0.01% | 31% | 0.01% | 16.7% | 83.3% | 0.01% | 69%
